This is an account of results in patent US8921376B2, “Pyrrolopyridines useful as inhibitors of protein kinase” (Vertex Pharmaceuticals Incorporated, priority 2005, dated 2014).

The structures appear in SMILES notation.

Assay type in all cases: biochemical
For one test, the target named is JAK2 (Homo sapiens, UniProt O60674). Description: JAK2 inhibition assay (as Example 3 with JAK-2 enzyme). Particulars: enzyme inhibition, Table 5. Here is the method: (§1) Compounds were screened for their ability to inhibit JAK using the assay shown below. Reactions were carried out in a kinase buffer containing 100 mM HEPES (pH 7.4), 1 mM DTT, 10 mM MgCl2, 25 mM NaCl, and 0.01% BSA.
(§2) Substrate concentrations in the assay were 5 μM ATP (200 μCi/μmole ATP) and 1 μM poly(Glu)4Tyr. Reactions were carried out at 25° C. and 1 nM JAK3.
(§3) To each well of a 96 well polycarbonate plate was added 1.5 μl of a candidate JAK3 inhibitor along with 50/1 of kinase buffer containing 2 μM poly(Glu)4Tyr and 10 μM ATP. This was then mixed and 50 μl of kinase buffer containing 2 nM JAK3 enzyme was added to start the reaction. After 20 minutes at room temperature (25 C), the reaction was stopped with 50 μl of 20% trichloroacetic acid (TCA) that also contained 0.4 mM ATP. The entire contents of each well were then transferred to a 96 well glass fiber filter plate using a TomTek Cell Harvester. After washing, 60 μl of scintillation fluid was added and ^33P incorporation detected on a Perkin Elmer TopCount.
The assays were as described above in Example 3 except that JAK-2 enzyme was used, the final poly(Glu)4Tyr concentration was 15 μM, and final ATP concentration was 12 μM.

The target of the next test is T1, JAK3 (Homo sapiens, UniProt P52333).
T1 sequence (P52333 1-1124): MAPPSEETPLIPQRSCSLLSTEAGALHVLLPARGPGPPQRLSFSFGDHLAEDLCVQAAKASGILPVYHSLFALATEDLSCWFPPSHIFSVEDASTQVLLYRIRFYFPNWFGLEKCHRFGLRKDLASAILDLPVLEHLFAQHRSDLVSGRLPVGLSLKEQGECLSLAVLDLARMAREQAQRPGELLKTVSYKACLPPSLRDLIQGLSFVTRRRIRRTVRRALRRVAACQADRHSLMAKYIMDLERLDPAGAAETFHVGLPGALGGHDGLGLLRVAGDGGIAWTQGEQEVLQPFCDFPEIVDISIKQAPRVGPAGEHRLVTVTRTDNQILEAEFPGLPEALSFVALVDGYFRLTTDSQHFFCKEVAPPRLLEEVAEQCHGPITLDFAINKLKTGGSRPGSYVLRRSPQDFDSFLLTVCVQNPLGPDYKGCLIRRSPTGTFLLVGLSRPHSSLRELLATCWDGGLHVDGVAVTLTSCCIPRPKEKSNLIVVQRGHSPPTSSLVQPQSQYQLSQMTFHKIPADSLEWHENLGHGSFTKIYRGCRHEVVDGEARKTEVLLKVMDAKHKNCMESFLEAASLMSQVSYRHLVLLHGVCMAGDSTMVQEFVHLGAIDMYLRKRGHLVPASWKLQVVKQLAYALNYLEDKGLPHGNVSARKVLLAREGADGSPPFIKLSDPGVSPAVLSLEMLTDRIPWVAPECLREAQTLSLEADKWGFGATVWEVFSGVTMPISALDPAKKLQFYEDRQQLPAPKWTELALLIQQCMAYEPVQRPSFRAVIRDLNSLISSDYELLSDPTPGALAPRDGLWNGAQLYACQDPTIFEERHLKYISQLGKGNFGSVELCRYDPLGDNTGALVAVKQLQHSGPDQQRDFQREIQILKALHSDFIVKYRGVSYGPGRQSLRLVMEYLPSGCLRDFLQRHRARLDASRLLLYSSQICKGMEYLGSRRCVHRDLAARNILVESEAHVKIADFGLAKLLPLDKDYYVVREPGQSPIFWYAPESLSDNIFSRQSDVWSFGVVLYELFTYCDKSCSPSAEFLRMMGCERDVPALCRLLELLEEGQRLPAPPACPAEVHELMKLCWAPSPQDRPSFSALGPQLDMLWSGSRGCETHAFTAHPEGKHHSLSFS
Description: JAK3 inhibition assay (33P incorporation into poly(Glu)4Tyr). As to conditions: enzyme inhibition, Table 5. The method, then: as §1, §2, §3

Another test has as its target ROCK I (Homo sapiens, UniProt Q13464). Description: ROCK-I inhibition assay (radioactive enzyme assay, MBP substrate). Particulars: enzyme inhibition, Ki(app), Table 5. Here is the method: Compounds were screened for their ability to inhibit ROCK using a standard radioactive enzyme assay. Assays were carried out in a solution containing 100 mM HEPES (pH 7.5), 10 mM MgCl2, 25 mM NaCl, 2 mM DTT, and 1.5% DMSO. Final substrate concentrations in the assay were 13 μM [γ-^33P] ATP (25 mCi ^33P ATP/mmol ATP, Perkin Elmer, Cambridge, Mass./Sigma Chemicals, St Louis, Mo.) and 27 μM Myelin Basic Protein (MBP). Final enzyme concentration in the assay was 5 nM ROCK. Assays were carried out at room temperature. 1.5 μl of DMSO stock containing serial dilutions of the compound of the present invention (concentrations ranging from 10 μM to 2.6 nM) was placed in a 96 well plate. 50 μl of Solution 1 (100 mM HEPES (pH 7.5), 10 mM MgCl2, […]) was added to the plate. The reaction was initiated by addition of 50 μl of Solution 2 (100 mM HEPES (pH 7.5), 10 mM MgCl2, 4 mM DTT, […] and 10 nM ROCK). After 2 hours the reaction was quenched with 50 μL of 30% trichloroacetic acid (TCA, Fisher) containing 9 mM ATP. Transfer of 140 μL of the quenched reaction to a glass fiber filter plate (Corning, Cat. No. 3511) was followed by washing 3 times with 5% TCA. 50 μl of Optima Gold scintillation fluid (Perkin Elmer) was added and the plates were counted on a Top Count (Perkin Elmer). After removing mean background values for all of the data points the data was fit using Prism software to obtain a Ki(app).

JAK2, sequence (O60674 whole entry): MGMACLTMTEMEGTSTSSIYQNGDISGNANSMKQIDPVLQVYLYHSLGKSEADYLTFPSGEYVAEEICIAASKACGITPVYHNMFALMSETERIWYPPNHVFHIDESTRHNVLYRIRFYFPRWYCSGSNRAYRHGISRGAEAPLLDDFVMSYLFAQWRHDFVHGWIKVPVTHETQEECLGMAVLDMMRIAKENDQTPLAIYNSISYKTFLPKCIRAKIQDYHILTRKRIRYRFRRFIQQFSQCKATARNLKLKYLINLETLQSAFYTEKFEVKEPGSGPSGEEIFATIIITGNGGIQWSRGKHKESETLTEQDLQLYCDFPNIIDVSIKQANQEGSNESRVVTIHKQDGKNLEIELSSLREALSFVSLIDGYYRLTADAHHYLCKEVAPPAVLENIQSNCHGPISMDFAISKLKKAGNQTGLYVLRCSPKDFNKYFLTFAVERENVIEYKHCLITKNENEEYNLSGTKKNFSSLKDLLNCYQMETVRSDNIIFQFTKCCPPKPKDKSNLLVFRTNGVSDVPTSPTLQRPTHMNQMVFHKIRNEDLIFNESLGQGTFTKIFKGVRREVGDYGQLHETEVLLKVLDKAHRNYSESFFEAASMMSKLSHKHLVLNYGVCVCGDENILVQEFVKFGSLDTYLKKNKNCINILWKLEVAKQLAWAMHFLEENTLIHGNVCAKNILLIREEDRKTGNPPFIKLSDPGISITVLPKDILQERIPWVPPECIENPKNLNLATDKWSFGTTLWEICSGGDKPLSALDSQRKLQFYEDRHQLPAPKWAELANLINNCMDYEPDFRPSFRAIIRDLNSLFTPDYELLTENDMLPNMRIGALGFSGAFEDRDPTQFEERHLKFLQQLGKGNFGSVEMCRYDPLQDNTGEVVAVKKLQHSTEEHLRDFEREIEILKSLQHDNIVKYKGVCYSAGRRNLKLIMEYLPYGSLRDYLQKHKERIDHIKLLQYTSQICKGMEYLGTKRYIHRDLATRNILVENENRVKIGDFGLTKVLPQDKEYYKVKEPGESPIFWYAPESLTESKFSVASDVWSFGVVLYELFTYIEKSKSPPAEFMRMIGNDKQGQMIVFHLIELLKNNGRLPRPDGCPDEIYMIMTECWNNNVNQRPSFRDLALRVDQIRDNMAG
ROCK I, sequence (Q13464 whole entry): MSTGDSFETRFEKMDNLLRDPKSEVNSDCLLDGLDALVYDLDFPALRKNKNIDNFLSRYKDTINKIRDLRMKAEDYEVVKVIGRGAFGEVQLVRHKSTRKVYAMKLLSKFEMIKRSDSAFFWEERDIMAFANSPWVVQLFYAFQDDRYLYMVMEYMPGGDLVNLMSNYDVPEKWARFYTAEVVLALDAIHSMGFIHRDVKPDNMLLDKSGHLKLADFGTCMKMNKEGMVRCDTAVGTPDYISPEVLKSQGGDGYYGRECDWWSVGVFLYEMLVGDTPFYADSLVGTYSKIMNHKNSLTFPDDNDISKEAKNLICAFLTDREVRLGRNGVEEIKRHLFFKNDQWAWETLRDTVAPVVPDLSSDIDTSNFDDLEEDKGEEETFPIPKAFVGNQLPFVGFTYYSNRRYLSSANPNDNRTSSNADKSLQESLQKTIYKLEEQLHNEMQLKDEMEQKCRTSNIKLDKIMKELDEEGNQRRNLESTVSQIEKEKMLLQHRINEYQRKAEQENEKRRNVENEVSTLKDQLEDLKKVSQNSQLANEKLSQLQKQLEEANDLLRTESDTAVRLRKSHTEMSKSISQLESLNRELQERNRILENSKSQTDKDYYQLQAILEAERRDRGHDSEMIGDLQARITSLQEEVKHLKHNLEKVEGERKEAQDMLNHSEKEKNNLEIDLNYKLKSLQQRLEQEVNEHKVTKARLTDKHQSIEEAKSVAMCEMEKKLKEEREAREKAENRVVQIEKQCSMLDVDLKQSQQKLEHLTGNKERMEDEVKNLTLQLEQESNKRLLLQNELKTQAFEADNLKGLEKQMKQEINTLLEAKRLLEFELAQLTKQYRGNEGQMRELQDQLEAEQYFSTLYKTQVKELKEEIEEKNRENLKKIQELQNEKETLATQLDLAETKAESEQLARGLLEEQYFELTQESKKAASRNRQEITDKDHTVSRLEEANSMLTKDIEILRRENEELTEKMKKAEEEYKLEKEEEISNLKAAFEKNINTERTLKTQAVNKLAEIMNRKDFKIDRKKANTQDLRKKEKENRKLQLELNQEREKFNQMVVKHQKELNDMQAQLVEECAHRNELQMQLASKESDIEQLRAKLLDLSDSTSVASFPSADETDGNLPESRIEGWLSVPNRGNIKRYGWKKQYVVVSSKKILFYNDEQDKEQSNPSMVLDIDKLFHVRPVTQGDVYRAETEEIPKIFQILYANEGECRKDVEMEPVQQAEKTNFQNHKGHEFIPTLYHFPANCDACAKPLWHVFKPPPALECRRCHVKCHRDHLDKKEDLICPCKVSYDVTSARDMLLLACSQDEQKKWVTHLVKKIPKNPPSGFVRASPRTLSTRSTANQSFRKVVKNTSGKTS

With `Clc1ccccc1CCNc1cccc(-c2ccnc3[nH]ccc23)n1` [compound 34, N-(2-Chlorophenethyl)-6-(1H-pyrrolo[2,3-b]pyridin-4-yl)pyridin-2-amine], the Ki on JAK2, on JAK3 and at ROCK I was 500 to 5000 nM each time.
Turning to `CN(CCO)c1cccc(-c2ccnc3[nH]ccc23)n1` [compound 35, 2-(N-(6-(1H-Pyrrolo[2,3-b]pyridin-4-yl)pyridin-2-yl)-N-methylamino)ethanol], the Ki on JAK2 is 500 to 5000 nM; on JAK3 it was 500 to 5000 nM; on ROCK I it was < 500 nM.
Take `c1cc(NCC2CCCO2)nc(-c2ccnc3[nH]ccc23)c1` (stereo not drawn) [compound 36, N-((tetrahydrofuran-2-yl)methyl)-6-(1H-pyrrolo[2,3-b]pyridin-4-yl)pyridin-2-amine]: the Ki at JAK2, on JAK3 and at ROCK I was 500 to 5000 nM in each case.
Consider `CN1CCCC1CCNc1cccc(-c2ccnc3[nH]ccc23)n1` (stereo not drawn) [compound 37, N-(2-(1-Methylpyrrolidin-2-yl)ethyl)-6-(1H-pyrrolo[2,3-b]pyridin-4-yl)pyridin-2-amine], for which the Ki was > 5000 nM on JAK2, > 5000 nM on JAK3 and 500 to 5000 nM on ROCK I.
For `c1cc(-c2ccnc3[nH]ccc23)nc(N2CCc3ccccc3C2)c1` [compound 38, 2-(6-(1H-Pyrrolo[2,3-b]pyridin-4-yl)pyridin-2-yl)-1,2,3,4-tetrahydroisoquinoline], the Ki at JAK2, at JAK3 and on ROCK I was 500 to 5000 nM each time.
On to `Clc1cc(-c2ccnc3[nH]ccc23)ccn1` [compound 39, 4-(2-Chloro-pyridin-4-yl)-1H-pyrrolo[2,3-b]pyridine], for which the Ki at JAK2, at JAK3 and at ROCK I was 500 to 5000 nM throughout.
Turning to `COc1cc(-c2ccnc3[nH]ccc23)cc(OC)c1OC` [compound 40, 4-(3,4,5-Trimethoxy-phenyl)-1H-pyrrolo[2,3-b]pyridine], the Ki at JAK2, at JAK3 and on ROCK I was 500 to 5000 nM throughout.
`Clc1ccc(-c2ccnc3[nH]ccc23)cc1Cl` [compound 41, 4-(3,4-Dichloro-phenyl)-1H-pyrrolo[2,3-b]pyridine]: the Ki was < 500 nM at JAK2, 500 to 5000 nM at JAK3 and < 500 nM on ROCK I.
As for `c1ccc(COc2cccc(-c3ccnc4[nH]ccc34)c2)cc1` [compound 42, 4-(3-Benzyloxy-phenyl)-1H-pyrrolo[2,3-b]pyridine], the values for the Ki at JAK2, at JAK3 and at ROCK I were 500 to 5000 nM, < 500 nM and < 500 nM, respectively.
Regarding `CC(=O)Nc1ccc(-c2ccnc3[nH]ccc23)cc1` [compound 43, N-[4-(1H-Pyrrolo[2,3-b]pyridin-4-yl)-phenyl]-acetamide], the Ki on JAK2, at JAK3 and at ROCK I was < 500 nM each time.
For `CC(C)(C)OC(=O)N1CC=C(c2ccnc3[nH]ccc23)CC1` [compound 44], the Ki on JAK2, at JAK3 and at ROCK I was < 500 nM each time.
Turning to `C1=C(c2ccnc3[nH]ccc23)CCNC1` [compound 45], the Ki was 500 to 5000 nM on JAK2, 500 to 5000 nM at JAK3 and < 500 nM on ROCK I.
As for `CCOC(=O)c1cccc(-c2ccnc3[nH]ccc23)c1` [compound 46, 3-(1H-Pyrrolo[2,3-b]pyridin-4-yl)-benzoic acid ethyl ester], the Ki at JAK2, at JAK3 and on ROCK I was 500 to 5000 nM each time.
In the case of `O=C(O)c1cccc(-c2ccnc3[nH]ccc23)c1` [compound 47, 3-(1H-Pyrrolo[2,3-b]pyridin-4-yl)-benzoic acid], the Ki at JAK2, on JAK3 and at ROCK I was 500 to 5000 nM in each case.
On to `Fc1cccc(-c2c(Cl)cnc3[nH]ccc23)n1` [compound 48, 5-chloro-4-(6-fluoropyridin-2-yl)-1H-pyrrolo[2,3-b]pyridine], for which the Ki is < 500 nM at JAK2, < 500 nM on JAK3 and 500 to 5000 nM at ROCK I.
Regarding `OCc1cccc(-c2ccnc3[nH]ccc23)c1` [compound 49, [3-(1H-Pyrrolo[2,3-b]pyridin-4-yl)-phenyl]-methanol], the figures for the Ki at JAK2, on JAK3 and at ROCK I were 500 to 5000 nM, < 500 nM and < 500 nM, respectively.
For `Fc1cccc(-c2ccnc3[nH]ccc23)n1` [compound 50, 4-(6-fluoropyridin-2-yl)-1H-pyrrolo[2,3-b]pyridine], the Ki on JAK2, at JAK3 and on ROCK I was 500 to 5000 nM throughout.
For the compound `OC1CCN(c2cccc(-c3ccnc4[nH]ccc34)n2)C1` (stereo not drawn) [compound 51], the Ki on JAK2, at JAK3 and on ROCK I was 500 to 5000 nM each time.
On to `CCN(CC)c1cccc(-c2ccnc3[nH]ccc23)n1` [compound 52, N,N-Diethyl-6-(1H-pyrrolo[2,3-b]pyridin-4-yl)pyridin-2-amine], for which the Ki at JAK2, at JAK3 and at ROCK I was < 500 nM in each case.
As for `CN(CCC(O)c1ccccc1)c1cccc(-c2ccnc3[nH]ccc23)n1` (stereo not drawn) [compound 53], the Ki is 500 to 5000 nM on JAK2, 500 to 5000 nM at JAK3 and < 500 nM at ROCK I.
`c1cc(-c2ccnc3[nH]ccc23)nc(N2CCC[C@H]2CN2CCCC2)c1` [compound 54]: the Ki was > 5000 nM on JAK2, > 5000 nM at JAK3 and 500 to 5000 nM at ROCK I.
Regarding `CN(CC(O)c1ccccc1)c1cccc(-c2ccnc3[nH]ccc23)n1` (stereo not drawn) [compound 55, 2-(N-(6-(1H-pyrrolo[2,3-b]pyridin-4-yl)pyridin-2-yl)-N-methylamino)1-phenylethanol], the Ki was < 500 nM on JAK2, 500 to 5000 nM on JAK3 and < 500 nM at ROCK I.
For `CN(Cc1cccnc1)c1cccc(-c2ccnc3[nH]ccc23)n1` [compound 56, N-Methyl-N-((pyridin-3-yl)methyl)-6-(1H-pyrrolo[2,3-b]pyridin-4-yl)pyridin-2-amine], the Ki on JAK2 was < 500 nM; on JAK3, 500 to 5000 nM; at ROCK I, 500 to 5000 nM.
On to `CC(C)(CO)CNc1cccc(-c2ccnc3[nH]ccc23)n1` [compound 57, 3-(6-(1H-Pyrrolo[2,3-b]pyridin-4-yl)pyridin-2-ylamino)-2,2-dimethylpropan-1-ol], for which the Ki at JAK2 was 500 to 5000 nM; on JAK3 it was > 5000 nM; at ROCK I, 500 to 5000 nM.
